Earlier results as cited in patent US20230055121A1, “AQUEOUS SUSPENSION COMPOSITION CONTAINING SIROLIMUS OR SALT THEREOF” (SANTEN PHARMACEUTICAL CO., LTD., priority 2019, published 2023).

Substance: Sirolimus
- Solubility in water: almost insoluble in water
